Measured values as given in the NIST ThermoML archive (doi:10.1016/j.jct.2010.11.003).
Several values for one entry are separate records, joined by “and”; a condition that tells them apart may be missing. Equal values may be shown once.

Experiment: mn = molality of the nth substance listed, in mol/kg
Conditions: 101 kPa, Liquid; for speed of sound: Sing-around technique in a fixed-path interferometer; for mass density: Vibrating tube method; for viscosity: Capillary tube (Ostwald / Ubbelohde) method

O=C([O-])CC(O)(CC(=O)[O-])C(=O)[O-].[K+].[K+].[K+] [potassium citrate] + O
Conditions	mass density, 293.15 K [kg/m3]	mass density, 298.15 K [kg/m3]	mass density, 303.15 K [kg/m3]	speed of sound, 293.15 K [m/s]	speed of sound, 298.15 K [m/s]	speed of sound, 303.15 K [m/s]	viscosity, 298.15 K	viscosity, 303.15 K [mPa·s]
m1 = 0.0472	1007.81	1006.59	1005.15	1492.8	1506.6	1518.1	1.027 mPa·s and 0.911 mPa·s	0.821
m1 = 0.0566	1009.7	1008.46	1007.02	1494.6	1508.5	1519.9	0.918 mPa·s and 1.027 mPa·s	0.822
m1 = 0.066	1011.58	1010.33	–	1496.5	1510.3	1521.7	0.924 mPa·s and 1.029 mPa·s	0.825
m1 = 0.0754	1013.45	1012.19	–	1498.3	1512	1523.5	0.93 mPa·s and 1.033 mPa·s	0.832
m1 = 0.0849	1015.34	1014.06	–	1500.2	1513.9	1525.3	0.935 mPa·s and 1.037 mPa·s	0.837
m1 = 0.0943	1017.2	1015.89	–	1502.1	1515.7	1527	0.942 mPa·s and 1.041 mPa·s	0.843
m1 = 0.2984	1055.65	1054.02	–	1540.4	1552.8	1563.6	1.065 mPa·s and 1.132 mPa·s	0.956
m1 = 0.3971	1073.05	1071.35	–	1558.2	1570.1	1580.3	1.13 mPa·s and 1.183 mPa·s	1.016
m1 = 0.4955	1089.85	1088.07	–	1576	1587	1596.8	1.2 mPa·s and 1.238 mPa·s	1.08
m1 = 0.5936	1106.03	1104.21	–	1593.3	1603.8	1613.3	1.274 mPa·s and 1.295 mPa·s	1.145
m1 = 0.7877	1136.49	1134.65	–	1626.4	1636.2	1644.5	1.423 mPa·s and 1.441 mPa·s	1.295
m1 = 0.9823	1165.2	1163.14	–	1658.6	1667.5	1674.8	1.575 mPa·s and 1.624 mPa·s	1.458
m1 = 1.175	1191.92	1189.77	–	1689.6	–	1697.5	1.733 mPa·s and 1.837 mPa·s	1.647
m1 = 1.366	1216.69	1214.46	–	1718.7	–	1725.7	1.92 mPa·s and 2.072 mPa·s	1.853
m1 = 1.555	1239.9	1237.68	–	1746.2	–	1752.6	2.121 mPa·s and 2.334 mPa·s	2.085
m1 = 1.837	1272.28	1269.96	–	1784.9	–	1790.3	2.476 mPa·s and 2.788 mPa·s	2.484
